This is an account of results in patent US20240425501A1, “NOVEL BICYCLIC HETEROARYL DERIVATIVES AS SOS1:KRAS PROTEINPROTEIN INTERACTION INHIBITORS” (SATYARX PHARMA INNOVATIONS PVT LTD, priority 2021, published 2024).

One may read the inhibition as the percentage by which the read-out fell short of the control.

The target in the assay is T1, hSOS1 enzyme / KRAS (G12C), GST-Tag, GDP-bound protein (Homo sapiens, UniProt Q07889).
T1 sequence (Q07889 564-1049 limits assumed): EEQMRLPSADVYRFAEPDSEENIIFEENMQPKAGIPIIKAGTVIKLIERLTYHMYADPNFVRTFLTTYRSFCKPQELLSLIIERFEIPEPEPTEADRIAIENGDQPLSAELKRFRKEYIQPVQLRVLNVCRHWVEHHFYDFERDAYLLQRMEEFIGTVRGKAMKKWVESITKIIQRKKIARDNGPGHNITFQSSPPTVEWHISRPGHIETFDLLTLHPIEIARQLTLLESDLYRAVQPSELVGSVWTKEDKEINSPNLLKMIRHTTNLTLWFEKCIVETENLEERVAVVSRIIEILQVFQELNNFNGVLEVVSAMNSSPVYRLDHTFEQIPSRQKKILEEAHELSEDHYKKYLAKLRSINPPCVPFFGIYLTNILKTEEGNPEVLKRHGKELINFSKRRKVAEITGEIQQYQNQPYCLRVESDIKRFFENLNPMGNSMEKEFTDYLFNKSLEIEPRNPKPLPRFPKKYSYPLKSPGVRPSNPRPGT
As to the kind of experiment: SOS1-mediated KRAS guanine nucleotide exchange (GEF) assay, HTRF ("On Assay"). As to conditions: 1 μM compound. It counts as biochemical. The method, then: Biochemical Assay: Measurement of SOS1-Mediated KRAS Guanine Nucleotide Exchange (GEF) Assay
This assay quantifies the HTRF-based SOS1 mediated guanine nucleotide exchange assay detecting GTP binding to KRAS (G12C), GST-Tag, GDP-bound protein. This is also referred as “On Assay”.The assay buffer composition is as follows: 10 mM HEPES pH-7, 150 mM NaCl, 5 mM MgCl2, 1 mM DTT, 0.05% BSA, 0.0025% IGEPAL CA-630 and MilliQ water. 0.5 μl of compounds diluted in assay buffer were dispensed into the respective wells of 384 black well test plate. 4.75 μl of KRAS working solution containing 100 nM KRAS (G12C), GST-Tag, GDP-bound protein GDP-loaded (Reaction biology) and 2 nM Anti GST-Tb cryptate (FRET donor, Cisbio) was added in assay buffer. The components were incubated for 10 min at 25° C.
4.75 μl of hSOS1 working solution containing 20 nM hSOS1 enzyme and 200 nM EDA-GTP-DY-647P (FRET acceptor, synthesized by Jena Bioscience (Germany), supplied as a 1 mM solution) was further added in assay buffer. 4.75 μl of inhibitor control having only 200 nM EDA-GTP-DY-647P1 component without hSOS1 working solution was added in the negative control well. The plate was short spun for few seconds and incubated for 10 min. HTRF was measured using Perkin Elmer-Nivo 5F multimode plate reader.
HTRF settings: EXCITATION FILTER—320/75 nm, EMISSION FILTER (1) —615/8 nm, EMISSION FILTER (2)—665/8 nm
(In general: Time-resolved FRET reads energy transfer from a long-lived donor to a nearby acceptor.)
As for `CC(C)N1CCN(c2cc3c(N[C@H](C)c4cc(N)cc(C(F)(F)F)c4)nc(Cl)nc3cn2)CC1` [Example 25, (R)—N-(1-(3-amino-5-(trifluoromethyl)phenyl)ethyl)-2-chloro-6-(4-isopropylpiperazin-1-yl)pyrido[3,4-d]pyrimidin-4-amine], the inhibition at 1 µM was at least 50%. For the molecule `C[C@@H](Nc1nc(Cl)nc2cnc(N3CCN(C4CC4)CC3)cc12)c1cc(N)cc(C(F)(F)F)c1` [Example 26, (R)—N-(1-(3-amino-5-(trifluoromethyl)phenyl)ethyl)-2-chloro-6-(4-cyclopropylpiperazin-1-yl)pyrido[3,4-d]pyrimidin-4-amine], the inhibition at 1 µM was at least 50%. `CC1CCN(c2cc3c(N[C@H](C)c4cc(N)cc(C(F)(F)F)c4)nc(Cl)nc3cn2)CC1` [Example 27, (R)—N-(1-(3-amino-5-(trifluoromethyl)phenyl)ethyl)-2-chloro-6-(4-methylpiperidin-1-yl)pyrido[3,4-d]pyrimidin-4-amine] yielded an inhibition at 1 µM of at least 50%. As for `C[C@@H](Nc1nc(Cl)nc2cnc(N3CCN(C4CCC4)CC3)cc12)c1cc(N)cc(C(F)(F)F)c1` [Example 28, (R)—N-(1-(3-amino-5-(trifluoromethyl)phenyl)ethyl)-2-chloro-6-(4-cyclobutylpiperazin-1-yl)pyrido[3,4-d]pyrimidin-4-amine], the inhibition at 1 µM is at least 50%. Take `C[C@@H](Nc1nc(Cl)nc2cnc(N3CCC(O)CC3)cc12)c1cc(N)cc(C(F)(F)F)c1` [Example 29, (R)-1-(4-((1-(3-amino-5-(trifluoromethyl)phenyl)ethyl)amino)-2-chloropyrido[3,4-d]pyrimidin-6-yl)piperidin-4-ol]: the inhibition at 1 µM is at least 50%. As for `CNc1nc(N[C@H](C)c2cc(N)cc(C(F)(F)F)c2)c2cc(N3CCC(OC)CC3)ncc2n1` [Example 30, (R)—N4-(1-(3-amino-5-(trifluoromethyl)phenyl)ethyl)-6-(4-methoxypiperidin-1-yl)-N2-methylpyrido[3,4-d]pyrimidine-2,4-diamine], the inhibition at 1 µM was at least 50%.

Take `CNc1nc(N[C@H](C)c2cc(N)cc(C(F)(F)F)c2)c2cc(N3CCN(C)CC3)ncc2n1` [Example 31, (R)—N4-(1-(3-amino-5-(trifluoromethyl)phenyl)ethyl)-N2-methyl-6-(4-methylpiperazin-1-yl)pyrido[3,4-d]pyrimidine-2,4-diamine]: the inhibition at 1 µM is at least 50%. The molecule `CNc1nc(N[C@H](C)c2cc(N)cc(C(F)(F)F)c2)c2cc(N3CCC(F)(F)CC3)ncc2n1` [Example 32, (R)—N4-(1-(3-amino-5-(trifluoromethyl)phenyl)ethyl)-6-(4,4-difluoropiperidin-1-yl)-N2-methylpyrido[3,4-d]pyrimidine-2,4-diamine] registered an inhibition at 1 µM of at least 50%. The figure for `CNc1nc(N[C@H](C)c2cc(N)cc(C(F)(F)F)c2)c2cc(N3CCC(F)CC3)ncc2n1` [Example 33, (R)—N4-(1-(3-amino-5-(trifluoromethyl)phenyl)ethyl)-6-(4-fluoropiperidin-1-yl)-N2-methylpyrido[3,4-d]pyrimidine-2,4-diamine] is at least 50%. As for `C[C@@H](Nc1nc(N2CCCC2=O)nc2cnc(N3CCCC3)cc12)c1cc(N)cc(C(F)(F)F)c1` [Example 34, (R)-1-(4-((1-(3-amino-5-(trifluoromethyl)phenyl)ethyl)amino)-6-(pyrrolidin-1-yl)pyrido[3,4-d]pyrimidin-2-yl)pyrrolidin-2-one], the inhibition at 1 µM is at least 50%. The molecule `CNCCNc1nc(N[C@H](C)c2cc(N)cc(C(F)(F)F)c2)c2cc(N3CCOCC3)ncc2n1` [Example 35, (R)—N4-(1-(3-amino-5-(trifluoromethyl)phenyl)ethyl)-N2-(2-(methylamino)ethyl)-6-morpholinopyrido[3,4-d]pyrimidine-2,4-diamine] showed an inhibition at 1 µM of at least 50%. Take `COCCNc1nc(N[C@H](C)c2cc(N)cc(C(F)(F)F)c2)c2cc(N3CCOCC3)ncc2n1` [Example 36, (R)—N4-(1-(3-amino-5-(trifluoromethyl)phenyl)ethyl)-N2-(2-methoxyethyl)-6-morpholinopyrido[3,4-d]pyrimidine-2,4-diamine]: the inhibition at 1 µM was at least 50%.

On to `C[C@@H](Nc1nc(N2CCC2)nc2cnc(N3CCOCC3)cc12)c1cc(N)cc(C(F)(F)F)c1` [Example 37, (R)—N-(1-(3-amino-5-(trifluoromethyl)phenyl)ethyl)-2-(azetidin-1-yl)-6-morpholinopyrido[3,4-d]pyrimidin-4-amine], for which the inhibition at 1 µM is at least 50%. Take `CC(C)Nc1nc(N[C@H](C)c2cc(N)cc(C(F)(F)F)c2)c2cc(N3CCOCC3)ncc2n1` [Example 38, (R)—N4-(1-(3-amino-5-(trifluoromethyl)phenyl)ethyl)-N2-isopropyl-6-morpholinopyrido[3,4-d]pyrimidine-2,4-diamine]: the inhibition at 1 µM is at least 50%. The figure for `CNCCNc1nc(N[C@H](C)c2cc(N)cc(C(F)(F)F)c2)c2cc(N3CCCC3)ncc2n1` [Example 39, (R)—N4-(1-(3-amino-5-(trifluoromethyl)phenyl)ethyl)-N2-(2-(methylamino)ethyl)-6-(pyrrolidin-1-yl)pyrido[3,4-d]pyrimidine-2,4-diamine] is at least 50%. The molecule `COC1CCN(c2cc3c(N[C@H](C)c4cc(N)cc(C(F)(F)F)c4)nc(N4CCC4)nc3cn2)CC1` [Example 40, (R)—N-(1-(3-amino-5-(trifluoromethyl)phenyl)ethyl)-2-(azetidin-1-yl)-6-(4-methoxypiperidin-1-yl)pyrido[3,4-d]pyrimidin-4-amine] had an inhibition at 1 µM of at least 50%. In turn, `COC1CCN(c2cc3c(N[C@H](C)c4cc(N)cc(C(F)(F)F)c4)nc(N(C)C)nc3cn2)CC1` [Example 41, (R)—N4-(1-(3-amino-5-(trifluoromethyl)phenyl)ethyl)-6-(4-methoxypiperidin-1-yl)-N2,N2-dimethylpyrido[3,4-d]pyrimidine-2,4-diamine] came in with an inhibition at 1 µM of at least 50%.

The molecule `COC1CCN(c2cc3c(N[C@H](C)c4cc(N)cc(C(F)(F)F)c4)nc(NC(C)C)nc3cn2)CC1` [Example 42, (R)—N4-(1-(3-amino-5-(trifluoromethyl)phenyl)ethyl)-N2-isopropyl-6-(4-methoxypiperidin-1-yl)pyrido[3,4-d]pyrimidine-2,4-diamine] gave an inhibition at 1 µM of at least 50%. In turn, `C[C@@H](Nc1nc(N(C)C)nc2cnc(N3CCC(F)CC3)cc12)c1cc(N)cc(C(F)(F)F)c1` [Example 43, (R)—N4-(1-(3-amino-5-(trifluoromethyl)phenyl)ethyl)-6-(4-fluoropiperidin-1-yl)-N2,N2-dimethylpyrido[3,4-d]pyrimidine-2,4-diamine] returned an inhibition at 1 µM of at least 50%.

Turning to `C[C@@H](Nc1nc(N2CCC2)nc2cnc(N3CCC(F)CC3)cc12)c1cc(N)cc(C(F)(F)F)c1` [Example 44, (R)—N-(1-(3-amino-5-(trifluoromethyl)phenyl)ethyl)-2-(azetidin-1-yl)-6-(4-fluoropiperidin-1-yl)pyrido[3,4-d]pyrimidin-4-amine], the inhibition at 1 µM is at least 50%.

As for `C[C@@H](Nc1nc(N(C)C)nc2cnc(N3CCN(C)CC3)cc12)c1cc(N)cc(C(F)(F)F)c1` [Example 45, (R)—N4-(1-(3-amino-5-(trifluoromethyl)phenyl)ethyl)-N2,N2-dimethyl-6-(4-methylpiperazin-1-yl)pyrido[3,4-d]pyrimidine-2,4-diamine], the inhibition at 1 µM was at least 50%.
